Data published in ChEMBL document CHEMBL1201862, “PubChem BioAssay data set” (2004).
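Compound exposure: 48 hours, 5 concentrations, 96-well plates. GI50 = concentration required for 50% inhibition of growth.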 The source made the active and inactive calls. Cut-off read from the data, not from the text of the source: active = GI50 up to about 1.1 µM and inactive = higher.

What was measured:
Assay in all cases: DTP human tumour cell line panel, 48 h
U-251 = test system: U-251
UACC-257 = test system: UACC-257
NCI-H226 = test system: NCI-H226
HOP-92 = test system: HOP-92
COLO 205 = test system: COLO 205
RPMI-8226 = test system: RPMI-8226
Malme-3M = test system: Malme-3M
UACC-62 = test system: UACC-62
HT-29 = test system: HT-29
A498 = test system: A498
NCI-H522 = test system: NCI-H522
A549 = test system: A549
KM-20L2 = test system: KM-20L2
SK-OV-3 = test system: SK-OV-3
SN12C = test system: SN12C
HCC 2998 = test system: HCC 2998
CCRF-CEM = test system: CCRF-CEM
EKVX = test system: EKVX
LXFL 529 = test system: LXFL 529
NCI-H23 = test system: NCI-H23

Measured: GI50

Cc1cc(C(C)C)cc(=O)c(O)c1
inactive: U-251 > 100 µM | UACC-257 > 100 µM | NCI-H226 > 100 µM | HOP-92 > 100 µM | COLO 205 > 100 µM | RPMI-8226 > 100 µM | Malme-3M > 100 µM | UACC-62 > 100 µM | HT-29 > 100 µM | A498 > 100 µM | NCI-H522 > 100 µM | A549 > 100 µM | KM-20L2 > 100 µM | SK-OV-3 > 100 µM | SN12C > 100 µM | HCC 2998 > 100 µM | CCRF-CEM > 100 µM | EKVX > 100 µM | LXFL 529 > 100 µM

Cc1cc(Br)cc(C)c1NC(=O)C(=O)C(C(=O)c1ccc2ccccc2c1)C1OC(=O)c2ccccc21 (configuration not stated)
inactive: U-251 5.78 µM | UACC-257 10.7 µM | NCI-H226 4.85 µM | HOP-92 1.58 µM | COLO 205 16.3 µM | RPMI-8226 5.94 µM | Malme-3M 14.7 µM | UACC-62 12.9 µM | HT-29 18.2 µM | A498 12 µM | NCI-H522 8.65 µM | A549 22.4 µM | NCI-H23 7.53 µM | KM-20L2 19.2 µM | SK-OV-3 78.5 µM | SN12C 19.7 µM | HCC 2998 11 µM | CCRF-CEM 3.94 µM | EKVX 19.5 µM | LXFL 529 7.93 µM

C/C(CC(=O)Nc1ccc([N+](=O)[O-])cc1)=N/N=C(N)N
inactive: U-251 > 100 µM | UACC-257 > 100 µM | NCI-H226 > 100 µM | HOP-92 > 100 µM | COLO 205 > 100 µM | RPMI-8226 > 10 µM | Malme-3M > 100 µM | UACC-62 > 100 µM | HT-29 > 100 µM | NCI-H522 > 100 µM | A549 > 100 µM | NCI-H23 > 100 µM | KM-20L2 > 100 µM | SK-OV-3 > 100 µM | HCC 2998 > 100 µM | CCRF-CEM > 100 µM | EKVX > 100 µM | LXFL 529 82 µM

CCN1C(=O)C(N=[N+]=[N-])(c2ccccc2)C(=O)c2ccccc21 (configuration not stated)
inactive: U-251 > 100 µM | UACC-257 46.6 µM | NCI-H226 46.7 µM | HOP-92 31.4 µM | COLO 205 > 100 µM | RPMI-8226 35.6 µM | Malme-3M 67 µM | UACC-62 62.8 µM | HT-29 > 100 µM | NCI-H522 > 100 µM | A549 55.8 µM | NCI-H23 57.1 µM | KM-20L2 > 100 µM | SK-OV-3 > 100 µM | SN12C > 100 µM | HCC 2998 > 100 µM | CCRF-CEM 55.1 µM | EKVX 32.9 µM | LXFL 529 38.9 µM

C[N+](C)(Cc1ccc(NC(=O)CCCC(=O)ON2C(=O)CCC2=O)cc1)c1ccccc1
active: U-251 < 0.01 µM | UACC-257 < 0.01 µM | NCI-H226 < 0.01 µM | HOP-92 < 0.01 µM | COLO 205 < 0.01 µM | RPMI-8226 < 0.01 µM | Malme-3M < 0.01 µM | UACC-62 < 0.01 µM | HT-29 < 0.01 µM | A498 < 0.01 µM | NCI-H522 < 0.01 µM | A549 < 0.01 µM | NCI-H23 < 0.01 µM | KM-20L2 < 0.01 µM | SK-OV-3 < 0.01 µM | SN12C < 0.01 µM | HCC 2998 < 0.01 µM | CCRF-CEM < 0.01 µM | EKVX < 0.01 µM | LXFL 529 < 0.01 µM

COc1ccc(CN2C(=O)C(Cc3cc(OC)c(OC)c(C)c3OC)N(C(=O)OC(C)C)C(=O)/C2=C/c2cc(OC)c(OC)c(C)c2OC)cc1 (configuration not stated)
inactive: U-251 > 100 µM | UACC-257 48 µM | NCI-H226 14.8 µM | HOP-92 > 100 µM | COLO 205 45.2 µM | RPMI-8226 16.4 µM | Malme-3M 64.9 µM | UACC-62 > 100 µM | HT-29 > 100 µM | A498 > 100 µM | NCI-H522 4.4 µM | A549 > 100 µM | NCI-H23 > 100 µM | KM-20L2 > 100 µM | SK-OV-3 > 100 µM | SN12C > 100 µM | HCC 2998 > 100 µM | CCRF-CEM 59.6 µM | EKVX 50.8 µM | LXFL 529 12.7 µM

O=C(NO)C(=O)Nc1cc(Cl)ccc1Cl
inactive: U-251 > 100 µM | UACC-257 > 100 µM | NCI-H226 > 100 µM | HOP-92 69.5 µM | COLO 205 > 100 µM | RPMI-8226 > 100 µM | Malme-3M > 100 µM | UACC-62 > 100 µM | HT-29 > 100 µM | A498 > 100 µM | NCI-H522 23.9 µM | A549 > 100 µM | NCI-H23 > 100 µM | KM-20L2 > 100 µM | SK-OV-3 > 100 µM | SN12C > 100 µM | HCC 2998 78 µM | CCRF-CEM 51.1 µM | EKVX > 100 µM | LXFL 529 > 100 µM

CC(=O)/C(=N\O)C(=O)NCCc1ccccc1
inactive: U-251 63.5 µM | UACC-257 57.7 µM | NCI-H226 > 100 µM | HOP-92 > 100 µM | COLO 205 45.9 µM | RPMI-8226 57.7 µM | Malme-3M > 100 µM | UACC-62 > 100 µM | HT-29 83.2 µM | A498 > 100 µM | NCI-H522 > 100 µM | A549 98.6 µM | NCI-H23 > 100 µM | KM-20L2 78.9 µM | SK-OV-3 > 100 µM | SN12C > 100 µM | HCC 2998 66.5 µM | CCRF-CEM 76.4 µM | EKVX > 100 µM | LXFL 529 > 100 µM

Cc1cc(NC(=O)NC(=O)c2ccccc2NC(=O)CN(C)C)ccc1Oc1ncc(Br)cn1
active: A498 0.929 µM
inactive: U-251 3.92 µM | UACC-257 57.5 µM | NCI-H226 6.76 µM | HOP-92 20.3 µM | COLO 205 2.38 µM | RPMI-8226 10.4 µM | Malme-3M 6.84 µM | UACC-62 2.21 µM | HT-29 1.61 µM | NCI-H522 1.14 µM | A549 3.54 µM | NCI-H23 4.67 µM | KM-20L2 4.56 µM | SK-OV-3 2.81 µM | SN12C 17.3 µM | HCC 2998 1.22 µM | CCRF-CEM 2.26 µM | EKVX 12.9 µM | LXFL 529 13.1 µM

Cc1ccc(NC(=O)CCC(=O)C2Cc3ccccc3C2=O)cc1C (configuration not stated)
inactive: U-251 > 100 µM | UACC-257 > 100 µM | NCI-H226 > 100 µM | HOP-92 > 100 µM | COLO 205 > 100 µM | RPMI-8226 > 100 µM | Malme-3M > 100 µM | UACC-62 > 100 µM | HT-29 > 100 µM | A498 > 100 µM | NCI-H522 > 100 µM | A549 > 100 µM | NCI-H23 > 100 µM | KM-20L2 > 100 µM | SK-OV-3 > 100 µM | SN12C > 100 µM | HCC 2998 > 100 µM | CCRF-CEM > 100 µM | EKVX > 100 µM | LXFL 529 > 100 µM

CC(C)(CN1C(=O)C(Cl)=C(Cl)C1=O)CN1C(=O)C(Cl)=C(Cl)C1=O
inactive: U-251 18.1 µM | UACC-257 13.9 µM | NCI-H226 22.5 µM | HOP-92 7.64 µM | COLO 205 3.23 µM | RPMI-8226 1.71 µM | Malme-3M 5.74 µM | UACC-62 14.1 µM | HT-29 13.2 µM | A498 28.6 µM | NCI-H522 1.62 µM | A549 35.5 µM | NCI-H23 11.7 µM | KM-20L2 16.6 µM | SK-OV-3 33.3 µM | SN12C 11.7 µM | HCC 2998 12 µM | EKVX 19.9 µM | LXFL 529 6.5 µM
active: CCRF-CEM 0.264 µM

CCOC(=O)CCCO
inactive: U-251 > 100 µM | UACC-257 > 100 µM | HOP-92 > 100 µM | RPMI-8226 > 100 µM | Malme-3M > 100 µM | UACC-62 > 100 µM | HT-29 > 100 µM | A498 > 100 µM | NCI-H522 > 100 µM | A549 > 100 µM | NCI-H23 > 100 µM | KM-20L2 > 100 µM | SK-OV-3 > 100 µM | SN12C > 100 µM | HCC 2998 > 100 µM | CCRF-CEM > 100 µM | EKVX > 100 µM | LXFL 529 > 100 µM

O=C(c1nc2ccccc2nc1O)C(O)c1ccco1 (configuration not stated)
inactive: U-251 > 100 µM | UACC-257 > 100 µM | NCI-H226 > 100 µM | HOP-92 > 100 µM | COLO 205 > 100 µM | RPMI-8226 > 100 µM | Malme-3M > 100 µM | UACC-62 61.5 µM | HT-29 > 100 µM | NCI-H522 25.9 µM | A549 > 100 µM | NCI-H23 > 100 µM | KM-20L2 56.5 µM | SK-OV-3 > 100 µM | SN12C > 100 µM | HCC 2998 > 100 µM | CCRF-CEM > 100 µM | EKVX > 100 µM | LXFL 529 86.3 µM

COc1ccc2c3c([nH]c2c1CC=C(C)C)C(=O)C=C(C)C3=O
inactive: U-251 > 25 µM | UACC-257 > 25 µM | NCI-H226 > 25 µM | HOP-92 > 25 µM | COLO 205 > 25 µM | RPMI-8226 > 25 µM | Malme-3M 16.1 µM | UACC-62 > 25 µM | HT-29 > 25 µM | NCI-H522 11.8 µM | A549 > 25 µM | NCI-H23 > 25 µM | KM-20L2 > 25 µM | SK-OV-3 > 25 µM | SN12C > 25 µM | HCC 2998 > 25 µM | CCRF-CEM 8.36 µM | EKVX > 25 µM | LXFL 529 15.8 µM
